Laboratory results published in patent US9458165B2, “DOT1L inhibitors” (Dana-Farber Cancer Institute, Inc., priority 2014, dated 2016).

What was measured:
Type in all cases: cell-based
MV4:11 cell line = test: Anti-proliferation study; conditions: compared to CC001, FIG. 7
H3K27Me3 mark = test: Western blot assay; conditions: compared to EPZ004777 and CC001, FIG. 5
the related gene = test: Gene expression assay; conditions: compared to CC001 and EPZ4777, FIG. 6
MV411 = test: Cellular activity in DOT1L related leukemia cell line (FIG. 10A); conditions: compared to EPZ4777, FIG. 10A

In the case of `CC(C)N(C[C@H]1C[C@@H](n2cc(C#N)c3c(N)ncnc32)[C@H](O)[C@@H]1O)C1CC(CCc2nc3ccc(C(C)(C)C)cc3[nH]2)C1` (stereo partly drawn) [Example 1, 4-amino-7-((1R,2S,3R,4R)-4-(((3-(2-(6-(tert-butyl)-1H-benzo[d]imidazol-2-yl)ethyl)cyclobutyl)(isopropyl)amino)methyl)-2,3-dihydroxycyclopentyl)-7H-pyrrolo[2,3-d]pyrimidine-5-carbonitrile], the anti-proliferation activity (MV4:11 cell line) is reported as “greater than known DOT1L inhibitor CC001”, the “reduction of H3K27 trimethylation” value (H3K27Me3 mark) is reported as “can reduce the H3K27 trimethylation at much lower dose compared to known DOT1L inhibitors EPZ004777 (structure shown below) and CC001” and the “down regulation of the related gene” value (the related gene) is reported as “down regulates the related gene more efficiently than known DOT1L inhibitor CC001 and very similar to EPZ4777”. The “cellular activity on DOT1L related leukemia” value (MV411) was “more potent than EPZ4777”.
